Measured values as given in ChEMBL document CHEMBL1147684, “Nitrogen-bridged substituted 8-arylquinolines as potent PDE IV inhibitors” (Bioorg Med Chem Lett, 2006).

Legend:
[1] = molecular target: 3',5'-cyclic-AMP phosphodiesterase 4D (Homo sapiens, UniProt Q08499); test: Inhibition of human GST-PDE4D
[2] = molecular target: T1, 3',5'-cyclic-AMP phosphodiesterase 4B (Homo sapiens, UniProt Q07343); test: Inhibition of human GST-PDE4B
[3] = molecular target: 3',5'-cyclic-AMP phosphodiesterase 4A (Homo sapiens, UniProt P27815); test: Inhibition of human GST-PDE4A
Sequence of 3',5'-cyclic-AMP phosphodiesterase 4A (P27815 whole entry): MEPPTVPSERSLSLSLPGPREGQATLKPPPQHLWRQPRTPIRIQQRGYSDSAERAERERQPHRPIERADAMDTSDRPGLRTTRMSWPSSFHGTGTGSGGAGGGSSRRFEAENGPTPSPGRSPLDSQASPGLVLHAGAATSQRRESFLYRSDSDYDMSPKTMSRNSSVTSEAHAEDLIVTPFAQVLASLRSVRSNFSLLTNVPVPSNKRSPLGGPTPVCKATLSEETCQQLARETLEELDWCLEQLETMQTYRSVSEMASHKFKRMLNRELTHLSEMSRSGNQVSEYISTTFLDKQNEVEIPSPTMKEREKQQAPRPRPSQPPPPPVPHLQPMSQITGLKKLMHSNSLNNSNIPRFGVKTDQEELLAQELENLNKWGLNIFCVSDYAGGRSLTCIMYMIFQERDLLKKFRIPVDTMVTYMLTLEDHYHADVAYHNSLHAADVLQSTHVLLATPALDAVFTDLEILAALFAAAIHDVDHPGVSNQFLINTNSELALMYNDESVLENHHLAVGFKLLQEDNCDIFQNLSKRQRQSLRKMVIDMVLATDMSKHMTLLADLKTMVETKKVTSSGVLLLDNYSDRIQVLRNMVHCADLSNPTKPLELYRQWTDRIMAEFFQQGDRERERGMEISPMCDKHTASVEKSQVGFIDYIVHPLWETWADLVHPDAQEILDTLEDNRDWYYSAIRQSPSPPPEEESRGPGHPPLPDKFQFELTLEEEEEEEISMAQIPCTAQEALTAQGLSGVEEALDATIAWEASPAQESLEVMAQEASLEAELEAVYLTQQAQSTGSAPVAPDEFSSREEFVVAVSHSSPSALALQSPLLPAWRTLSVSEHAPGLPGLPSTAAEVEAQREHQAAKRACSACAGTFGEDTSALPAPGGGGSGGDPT

[4] = molecular target: T1, 3',5'-cyclic-AMP phosphodiesterase 4B; test: Ability to block TNFalpha release through inhibition of PDE4 in LPS-stimulated human whole blood; format: functional, tissue-based
[5] = molecular target: 3',5'-cyclic-AMP phosphodiesterase 4C (Homo sapiens, UniProt Q08493); test: Inhibition of human GST-PDE4C
Sequence of 3',5'-cyclic-AMP phosphodiesterase 4C (Q08493 whole entry): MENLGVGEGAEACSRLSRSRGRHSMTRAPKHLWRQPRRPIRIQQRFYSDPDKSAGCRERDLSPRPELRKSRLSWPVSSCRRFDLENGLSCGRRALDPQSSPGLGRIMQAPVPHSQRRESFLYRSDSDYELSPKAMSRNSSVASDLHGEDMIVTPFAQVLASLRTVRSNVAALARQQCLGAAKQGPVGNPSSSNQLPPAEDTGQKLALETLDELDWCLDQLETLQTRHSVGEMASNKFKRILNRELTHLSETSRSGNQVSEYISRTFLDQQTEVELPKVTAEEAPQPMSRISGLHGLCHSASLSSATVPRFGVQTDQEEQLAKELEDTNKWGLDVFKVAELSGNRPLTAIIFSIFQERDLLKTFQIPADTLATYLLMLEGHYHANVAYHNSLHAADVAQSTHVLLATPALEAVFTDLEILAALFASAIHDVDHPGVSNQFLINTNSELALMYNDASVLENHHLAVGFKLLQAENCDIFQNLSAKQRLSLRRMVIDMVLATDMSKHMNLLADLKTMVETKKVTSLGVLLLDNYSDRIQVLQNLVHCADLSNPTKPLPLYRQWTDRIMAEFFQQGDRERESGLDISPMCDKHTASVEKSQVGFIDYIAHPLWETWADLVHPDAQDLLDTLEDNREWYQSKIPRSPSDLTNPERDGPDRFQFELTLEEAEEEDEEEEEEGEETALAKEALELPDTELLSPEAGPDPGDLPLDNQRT

[6] = Half life in iv dosed squirrel monkey; format: ADME, organism-based, Saimiri sciureus; settings: in vivo
[7] = Cmax in rat; format: ADME, organism-based; settings: in vivo
[8] = Oral bioavailability in rat; format: ADME, organism-based; settings: in vivo
[9] = Half life in iv dosed rat; format: ADME, organism-based; settings: in vivo
[10] = Cmax in squirrel monkey; format: ADME, organism-based, Saimiri sciureus; settings: in vivo
Cavia porcellus [11] = test: Inhibition of ovalbumin-induced bronchoconstriction in guinea pig at 30 ug/kg, ip; format: functional
[12] = Oral bioavailability in squirrel monkey; format: ADME, organism-based, Saimiri sciureus; settings: in vivo
Cavia porcellus [13] = test: Inhibition of ovalbumin-induced bronchoconstriction in guinea pig at 1 mg/kg, ip; format: functional; settings: route intraperitoneal

Sequence of 3',5'-cyclic-AMP phosphodiesterase 4D (Q08499 whole entry): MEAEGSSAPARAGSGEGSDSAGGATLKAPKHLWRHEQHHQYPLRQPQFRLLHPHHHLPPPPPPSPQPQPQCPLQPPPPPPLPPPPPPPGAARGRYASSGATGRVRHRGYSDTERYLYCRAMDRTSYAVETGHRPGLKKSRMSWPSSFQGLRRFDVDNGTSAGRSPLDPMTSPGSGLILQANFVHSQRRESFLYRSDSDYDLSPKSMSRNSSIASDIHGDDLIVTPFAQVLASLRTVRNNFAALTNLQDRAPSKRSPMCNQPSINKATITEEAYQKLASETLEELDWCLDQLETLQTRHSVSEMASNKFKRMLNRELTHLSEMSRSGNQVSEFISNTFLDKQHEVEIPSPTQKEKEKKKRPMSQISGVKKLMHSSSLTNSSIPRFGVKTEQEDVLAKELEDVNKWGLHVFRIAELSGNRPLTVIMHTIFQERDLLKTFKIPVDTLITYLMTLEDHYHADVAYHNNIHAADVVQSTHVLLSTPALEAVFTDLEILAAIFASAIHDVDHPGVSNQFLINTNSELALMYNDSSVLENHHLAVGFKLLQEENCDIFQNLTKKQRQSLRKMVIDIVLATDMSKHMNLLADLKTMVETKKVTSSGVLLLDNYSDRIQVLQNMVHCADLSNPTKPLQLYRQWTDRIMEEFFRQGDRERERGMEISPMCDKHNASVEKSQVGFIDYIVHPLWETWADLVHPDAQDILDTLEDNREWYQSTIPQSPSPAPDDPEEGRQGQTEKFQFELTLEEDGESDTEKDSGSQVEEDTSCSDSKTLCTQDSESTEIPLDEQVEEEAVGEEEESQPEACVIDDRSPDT
T1 sequence (Q07343 whole entry): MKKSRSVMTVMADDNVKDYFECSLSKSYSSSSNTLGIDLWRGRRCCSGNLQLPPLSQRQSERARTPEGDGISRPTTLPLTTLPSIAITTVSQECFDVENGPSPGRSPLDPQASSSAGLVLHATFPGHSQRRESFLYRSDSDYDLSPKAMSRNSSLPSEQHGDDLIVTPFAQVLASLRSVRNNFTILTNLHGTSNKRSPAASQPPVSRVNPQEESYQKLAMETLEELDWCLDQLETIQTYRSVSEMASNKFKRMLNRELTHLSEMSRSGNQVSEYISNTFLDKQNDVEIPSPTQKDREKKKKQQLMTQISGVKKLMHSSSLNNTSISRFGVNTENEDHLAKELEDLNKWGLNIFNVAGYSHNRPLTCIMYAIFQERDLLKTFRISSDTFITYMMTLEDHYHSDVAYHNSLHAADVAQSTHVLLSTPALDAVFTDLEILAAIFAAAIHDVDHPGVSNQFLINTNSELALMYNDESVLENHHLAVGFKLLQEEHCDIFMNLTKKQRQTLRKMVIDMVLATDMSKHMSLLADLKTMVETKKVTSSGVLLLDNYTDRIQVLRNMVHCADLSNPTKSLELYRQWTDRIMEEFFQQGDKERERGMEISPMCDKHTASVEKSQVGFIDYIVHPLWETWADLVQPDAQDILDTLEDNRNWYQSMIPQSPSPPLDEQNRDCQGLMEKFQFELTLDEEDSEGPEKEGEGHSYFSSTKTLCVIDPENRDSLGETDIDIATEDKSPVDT

CC(C)NC(=O)N(c1ccc(S(C)(=O)=O)cc1)C(C)c1cccc(-c2cc(C(C)(C)S(C)(=O)=O)cc3cccnc23)c1 (configuration not stated)
IC50 [1]: 1.9 nM | IC50 [2]: 0.7 nM | IC50 [3]: 1.8 nM | IC50 [4]: 400 nM | IC50 [5]: 25 nM

CC(C)(c1cc(-c2cccc(C(=O)Nc3ccncc3)c2)c2ncccc2c1)S(C)(=O)=O
IC50 [1]: 3 nM | IC50 [2]: 0.9 nM | IC50 [3]: 3.1 nM | IC50 [4]: 200 nM | IC50 [5]: 17 nM

CC(C)NC(=O)N(Cc1cccc(-c2cc(C(C)(C)S(C)(=O)=O)cc3cccnc23)c1)c1ccc(S(C)(=O)=O)cc1
IC50 [1]: 0.1 nM | IC50 [2]: 0.1 nM | IC50 [3]: 0.1 nM | IC50 [4]: 100 nM | IC50 [5]: 1.7 nM

CC(c1cccc(-c2cc(C(C)(C)S(C)(=O)=O)cc3cccnc23)c1)N(C(=O)c1ccc(C(C)(C)O)cc1)c1ccc(S(C)(=O)=O)cc1 (configuration not stated)
IC50 [1]: 0.5 nM | IC50 [2]: 0.4 nM | IC50 [3]: 1.5 nM | IC50 [4]: 270 nM | IC50 [5]: 5.9 nM

CC(C)(C#N)c1cc(-c2cccc(CN(C(=O)Nc3ccccc3)c3ccc(S(C)(=O)=O)cc3)c2)c2ncccc2c1
IC50 [1]: 0.1 nM | IC50 [2]: 0.03 nM | IC50 [3]: 0.1 nM | IC50 [4]: 40 nM | IC50 [5]: 0.05 nM

CC(c1cccc(-c2cc(C(C)(C)S(C)(=O)=O)cc3cccnc23)c1)N(C(=O)c1ccc(F)cc1)c1ccc(S(C)(=O)=O)cc1 (single isomer, unassigned; enantiomer A)
IC50 [1]: 7 nM | IC50 [2]: 5.8 nM | IC50 [3]: 15 nM | IC50 [4]: 1400 nM | IC50 [5]: 51 nM

CC(=O)N(c1ccc(S(C)(=O)=O)cc1)C(C)c1cccc(-c2cc(C(C)(C)S(C)(=O)=O)cc3cccnc23)c1 (configuration not stated)
IC50 [1]: 6.7 nM | IC50 [2]: 4.2 nM | IC50 [3]: 10 nM | IC50 [4]: 2000 nM | IC50 [5]: 41 nM

CC(C)OC(=O)N(Cc1cccc(-c2cc(C(C)(C)C#N)cc3cccnc23)c1)c1ccc(S(C)(=O)=O)cc1
IC50 [1]: 0.3 nM | IC50 [2]: 0.3 nM | IC50 [3]: 0.3 nM | IC50 [4]: 80 nM | IC50 [5]: 4.2 nM

CC(c1cccc(-c2cc(C(C)(C)S(C)(=O)=O)cc3cccnc23)c1)N(C(=O)c1ccc(F)cc1)c1ccc(S(C)(=O)=O)cc1 (racemic)
half-life [6]: 420 min | IC50 [1]: 1.8 nM | Cmax [7]: 2700 nM | bioavailability [8]: 67% | half-life [9]: 120 min | IC50 [2]: 0.6 nM | Cmax [10]: 900 nM | inhibition in vivo at 0.03 mg/kg (Cavia porcellus [11]): 74% | IC50 [3]: 2.3 nM | IC50 [4]: 560 nM | bioavailability [12]: 98% | IC50 [5]: 12 nM

CC(C)(c1cc(-c2cccc(C(N)=O)c2)c2ncccc2c1)S(C)(=O)=O
IC50 [1]: 74 nM | IC50 [2]: 40 nM | IC50 [3]: 78 nM | IC50 [5]: 490 nM

CC(C)NC(=O)N(Cc1cccc(-c2cc(C(C)(C)C#N)cc3cccnc23)c1)c1ccc(S(C)(=O)=O)cc1
IC50 [1]: 0.1 nM | IC50 [2]: 0.1 nM | IC50 [3]: 0.1 nM | IC50 [4]: 140 nM | IC50 [5]: 1.7 nM

CC(C)(c1cc(-c2cccc(NC(=O)c3ccc(S(C)(=O)=O)cc3)c2)c2ncccc2c1)S(C)(=O)=O
IC50 [1]: 2.3 nM | IC50 [2]: 1.2 nM | IC50 [3]: 1.7 nM | IC50 [4]: 1000 nM | IC50 [5]: 10.6 nM

CC(c1cccc(-c2cc(C(C)(C)S(C)(=O)=O)cc3cccnc23)c1)N(C(=O)C1CC1)c1ccc(S(C)(=O)=O)cc1 (configuration not stated)
IC50 [1]: 1.4 nM | IC50 [2]: 0.6 nM | IC50 [3]: 1.6 nM | IC50 [4]: 800 nM | IC50 [5]: 17 nM

CC(C)(c1cc(-c2cccc(C(=O)Nc3ccccc3)c2)c2ncccc2c1)S(C)(=O)=O
IC50 [1]: 10 nM | IC50 [2]: 5.9 nM | IC50 [3]: 16 nM | IC50 [4]: 7000 nM | IC50 [5]: 97 nM

COc1ccc([C@H](Cc2ccncc2)c2ccccc2)cc1OC1CCCC1 [CDP840]
inhibition in vivo at 1 mg/kg (Cavia porcellus [13]): 55%

CC(C)NC(=O)N(Cc1cc(-c2cc(C(C)(C)S(C)(=O)=O)cc3cccnc23)ccc1F)c1ccc(S(C)(=O)=O)cc1
IC50 [1]: 0.8 nM | IC50 [2]: 0.3 nM | IC50 [3]: 0.6 nM | IC50 [4]: 50 nM | IC50 [5]: 6.4 nM

CC(C)(c1cc(-c2cccc(C(=O)Nc3ccc(S(C)(=O)=O)cc3)c2)c2ncccc2c1)S(C)(=O)=O
IC50 [1]: 2.8 nM | IC50 [2]: 0.5 nM | IC50 [3]: 3.5 nM | IC50 [4]: 140 nM | IC50 [5]: 26 nM

CC(C)(c1cc(-c2cccc(C(=O)Nc3c(Cl)cncc3Cl)c2)c2ncccc2c1)S(C)(=O)=O
IC50 [1]: 0.7 nM | IC50 [2]: 0.4 nM | IC50 [3]: 0.6 nM | IC50 [4]: 90 nM | IC50 [5]: 5.5 nM

Cc1cc(C(=O)N(Cc2cccc(-c3cc(C(C)(C)C#N)cc4cccnc34)c2)c2ccc(S(C)(=O)=O)cc2)no1
IC50 [1]: 0.1 nM | IC50 [2]: 0.1 nM | IC50 [3]: 0.3 nM | IC50 [4]: 30 nM | IC50 [5]: 0.9 nM

CC(C)(C#N)c1cc(-c2cccc(CN(Cc3ccc(F)cc3)c3ccc(S(C)(=O)=O)cc3)c2)c2ncccc2c1
IC50 [1]: 0.5 nM | IC50 [2]: 0.1 nM | IC50 [3]: 1 nM | IC50 [4]: 1800 nM | IC50 [5]: 9.5 nM

CC(c1cccc(-c2cc(C(C)(C)S(C)(=O)=O)cc3cccnc23)c1)N(C(=O)c1ccc(F)cc1)c1ccc(S(C)(=O)=O)cc1 (single isomer, unassigned; enantiomer B)
IC50 [1]: 0.7 nM | IC50 [2]: 0.5 nM | IC50 [3]: 1.8 nM | IC50 [4]: 250 nM | IC50 [5]: 7.5 nM

CC(C)(C#N)c1cc(-c2cccc(CN(C(=O)c3ccccc3)c3ccc(S(C)(=O)=O)cc3)c2)c2ncccc2c1
IC50 [1]: 0.3 nM | IC50 [2]: 0.1 nM | IC50 [3]: 0.2 nM | IC50 [4]: 80 nM | IC50 [5]: 1 nM

CC(C)NC(=O)N(Cc1cc(-c2cc(C(C)(C)S(C)(=O)=O)cc3cccnc23)ccc1Cl)c1ccc(S(C)(=O)=O)cc1
IC50 [1]: 10 nM | IC50 [2]: 4.4 nM | IC50 [3]: 15 nM | IC50 [4]: 4000 nM | IC50 [5]: 70 nM

CC(c1cccc(-c2cc(C(C)(C)S(C)(=O)=O)cc3cccnc23)c1)N(C(=O)c1cccnc1)c1ccc(S(C)(=O)=O)cc1 (configuration not stated)
IC50 [1]: 1.7 nM | IC50 [2]: 0.7 nM | IC50 [3]: 2.1 nM | IC50 [4]: 210 nM | IC50 [5]: 14 nM
